A word on the AC50: it is the concentration at which the activity in the assay is half-maximal.

The source made the active and inactive calls.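 Rule for the calls: active = parasite count per well reduced by over 3 SD from the mean, with host cell number above 80% of untreated; inactive = the rest.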 Bounds are passed on as bounds.

The assay has as its system L. donovani amastigotes in THP-1 macrophages, DAPI imaging, 72 h. The assay can be described thus: antileishmanial activity in infected macrophages – imaging, THP-1 host macrophages, single concentration (AID 977614).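 Note: signal is the parasite per host cell ratio from DAPI stained kinetoplasts and nuclei.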
Consider `Cc1noc(C)c1NC(=O)N(C)C[C@H]1OCc2cn(nn2)CCCC(=O)N([C@@H](C)CO)C[C@H]1C`, for which the AC50 is > 10 µM (inactive). With `O=S(=O)(c1ccccc1)N1C[C@@H]2[C@H](c3ccccc31)[C@H](CO)N2Cc1ccccn1` the figure was > 10 µM (inactive). Turning to `OC[C@H]1[C@@H]2c3ccccc3NC[C@@H]2N1Cc1ccccc1Cl`, the AC50 is > 10 µM (inactive). For the compound `C[C@@H]1CN([C@H](C)CO)C(=O)CCCn2nncc2CO[C@@H]1CN(C)C(=O)c1ccc(N2CCN(C)CC2)cc1`, the AC50 is > 10 µM (inactive). `CC(=O)N1[C@H](CO)[C@H](c2ccccc2)[C@H]1CN(CC1CCC1)C(=O)CN(C)C`: the AC50 is > 10 µM (inactive). The value for `C/C=C/c1ccc([C@H]2[C@H](CO)N(C(C)=O)[C@H]2CNC(=O)c2ccccc2)cc1` was > 10 µM (inactive). As to `C/C=C/c1ccc([C@H]2[C@H](CO)N(S(C)(=O)=O)[C@H]2CNCC2CCC2)cc1`, the AC50 is > 10 µM (inactive). With `O=C(Nc1cccc(F)c1)N1C[C@@H]2[C@H](c3ccccc31)[C@@H](CO)N2C(=O)Cc1ccccn1` the figure was > 10 µM (inactive); with `CCC(=O)N1C[C@H]2[C@@H](c3ccccc31)[C@@H](CO)N2C(=O)CC1CC1`, > 10 µM (inactive); with `O=C(C1CCCCC1)N1[C@H](CO)[C@@H]2c3ccccc3NC[C@@H]21`, > 10 µM (inactive).

Turning to `C[C@H](CO)N1C[C@H](C)[C@@H](CN(C)Cc2ccc3cccnc3c2)OCc2cnnn2CCCC1=O`, the AC50 was > 10 µM (inactive).

Regarding `O=S(=O)(c1ccccc1)N1[C@H](CO)[C@@H]2c3ccccc3NC[C@@H]21`, the AC50 is > 10 µM (inactive).

For the compound `Cc1noc(C)c1NC(=O)N(C)C[C@@H]1OCc2cn(nn2)CCCC(=O)N([C@H](C)CO)C[C@@H]1C`, the AC50 is > 10 µM (inactive). The value for `CC(=O)NC[C@@H]1[C@@H](c2ccc(C#Cc3ccccc3F)cc2)[C@@H](CO)N1C(C)=O` was > 10 µM (inactive).

With `C/C=C/c1ccc([C@H]2[C@@H](CO)N(C(C)=O)[C@H]2CNC(=O)c2ccccc2)cc1`, the AC50 was > 10 µM (inactive). With `O=C(CC1CC1)N1[C@@H]2CN(S(=O)(=O)c3ccccc3F)c3ccccc3[C@@H]2[C@@H]1CO` the figure was > 10 µM (inactive).

With `O=C(C1CCCCC1)N1[C@@H]2CNc3ccccc3[C@@H]2[C@@H]1CO`, the AC50 was > 10 µM (inactive). The value for `CN(C[C@@H]1N[C@H](CO)[C@H]1c1ccccc1)C(=O)c1ccccn1` was > 10 µM (inactive); that for `CC(=O)N1[C@@H](CO)[C@@H]2c3ccccc3N(S(=O)(=O)c3ccccc3C)C[C@@H]21` was > 10 µM (inactive); that for `CCC(=O)NC[C@@H]1[C@@H](c2ccc(-c3ccc(F)cc3)cc2)[C@@H](CO)N1C(=O)CC` was > 10 µM (inactive). With `C/C=C/c1ccc([C@H]2[C@@H](CO)N(C(C)=O)[C@@H]2CN(CC)C(=O)CN(C)C)cc1` the figure was > 10 µM (inactive). As to `C[C@@H]1CN([C@H](C)CO)C(=O)CCCn2cc(nn2)CO[C@@H]1CN(C)C(=O)c1ccc(N2CCN(C)CC2)cc1`, the AC50 is > 10 µM (inactive).

In the case of `OC[C@@H]1[C@@H]2c3ccccc3NC[C@@H]2N1CC1CCOCC1`, the AC50 was > 10 µM (inactive). Turning to `CCCC#Cc1ccc([C@H]2[C@@H](CO)N(C(C)=O)[C@H]2CN(C)C(=O)C2CC2)cc1`, the AC50 was > 10 µM (inactive).

For `Cc1noc(C)c1S(=O)(=O)N(C)C[C@@H]1OCc2cn(nn2)CCCC(=O)N([C@@H](C)CO)C[C@H]1C`, the AC50 was > 10 µM (inactive). Turning to `COCC(=O)N1C[C@@H]2[C@H](c3ccccc31)[C@@H](CO)N2C(=O)c1ccccc1F`, the AC50 is > 10 µM (inactive). The value for `C[C@@H]1CN([C@@H](C)CO)C(=O)CCCn2nncc2CO[C@@H]1CN(C)C(=O)Nc1cccc(Oc2ccccn2)c1` was > 10 µM (inactive); that for `C/C=C/c1ccc([C@H]2[C@@H](CO)N(S(=O)(=O)CC)[C@@H]2CN(C)C(=O)CC)cc1` was > 10 µM (inactive).

As for `CCN(C[C@H]1[C@H](c2ccc(-c3cccnc3)cc2)[C@H](CO)N1C(C)=O)C(C)=O`, the AC50 was > 10 µM (inactive). The value for `O=C(NC[C@H]1N[C@H](CO)[C@@H]1c1ccc(-c2ccccc2)cc1)c1cccc(F)c1` was > 10 µM (inactive); that for `CN(C[C@H]1[C@H](c2ccccc2)[C@@H](CO)N1Cc1ccccn1)S(C)(=O)=O` was > 10 µM (inactive). With `O=C(Nc1ccc(F)cc1)N1[C@@H]2CNc3ccccc3[C@@H]2[C@@H]1CO` the figure was > 10 µM (inactive); with `C[C@H]1CN([C@@H](C)CO)C(=O)CCCn2cc(nn2)CO[C@@H]1CN(C)C(=O)Nc1cccc2ccccc12`, > 10 µM (inactive); with `C[C@H](CO)N1C[C@H](C)[C@H](CN(C)S(=O)(=O)c2ccc3c(c2)OCCCO3)OCc2cnnn2CCCC1=O`, > 10 µM (inactive). Regarding `C[C@@H]1CN([C@@H](C)CO)C(=O)CCCn2nncc2CO[C@H]1CN(C)S(=O)(=O)c1ccc(Oc2ccccc2)nc1`, the AC50 is > 10 µM (inactive). As to `C[C@@H]1CN([C@@H](C)CO)C(=O)CCCn2cc(nn2)CO[C@@H]1CN(C)C(=O)CCC(F)(F)F`, the AC50 is > 10 µM (inactive). With `C[C@H]1CN([C@@H](C)CO)C(=O)CCCn2nncc2CO[C@@H]1CN(C)Cc1cccc(C(F)(F)F)c1` the figure was > 10 µM (inactive). For `CC(=O)N1[C@@H](CO)[C@@H]2c3ccccc3N(C(=O)c3ccc(F)cc3)C[C@@H]21`, the AC50 was > 10 µM (inactive). On to `C/C=C/c1ccc([C@@H]2[C@H](CO)N[C@H]2CN(CC(C)C)C(=O)c2ccccn2)cc1`, for which the AC50 is > 10 µM (inactive). With `C[C@H](CO)N1C[C@H](C)[C@H](CN(C)C(=O)c2ccc3ccn(C)c3c2)OCc2cnnn2CCCC1=O` the figure was > 10 µM (inactive). As to `C/C=C/c1ccc([C@H]2[C@@H](CNC(=O)CC3CC3)N(C(=O)CC)[C@H]2CO)cc1`, the AC50 is > 10 µM (inactive). As for `CC(C)NC(=O)N1[C@H](CO)[C@@H](c2ccccc2)[C@@H]1CN(C)C(=O)c1cccnc1`, the AC50 was > 10 µM (inactive).

For `COCCN(C[C@H]1[C@H](c2ccccc2)[C@H](CO)N1C(C)=O)C(=O)c1cccnc1`, the AC50 was > 10 µM (inactive). As for `C[C@H](CO)N1C[C@H](C)[C@@H](CN(C)S(=O)(=O)c2ccc(-n3cccn3)cc2)OCc2cn(nn2)CCCC1=O`, the AC50 is > 10 µM (inactive).

In the case of `C[C@@H]1CN([C@@H](C)CO)C(=O)CCCn2cc(nn2)CO[C@@H]1CN(C)S(=O)(=O)c1cccc(C#N)c1`, the AC50 was > 10 µM (inactive). The value for `C[C@@H]1CN([C@H](C)CO)C(=O)CCCn2cc(nn2)CO[C@@H]1CN(C)C(=O)Oc1ccc2ccccc2c1` was > 10 µM (inactive); that for `O=C(CN1CCOCC1)NC[C@H]1N[C@H](CO)[C@@H]1c1ccc(-c2ccccc2)cc1` was > 10 µM (inactive). With `CCS(=O)(=O)N(C)C[C@@H]1N[C@H](CO)[C@@H]1c1ccc(C2=CCCCC2)cc1` the figure was > 10 µM (inactive); with `CC(=O)N1[C@H](CO)[C@H](c2ccccc2)[C@@H]1CNC(=O)CN1CCOCC1`, > 10 µM (inactive). The value for `O=S(=O)(NC[C@@H]1[C@@H](c2ccccc2)[C@H](CO)N1CC1CC1)c1ccccc1` was > 10 µM (inactive); that for `C[C@@H]1CN([C@H](C)CO)C(=O)CCCn2nncc2CO[C@H]1CN(C)Cc1cccc2c1OCCCO2` was > 10 µM (inactive). For the compound `C[C@H](CO)N1C[C@H](C)[C@H](CN(C)S(=O)(=O)c2ccc(-n3cccn3)cc2)OCc2cn(nn2)CCCC1=O`, the AC50 was > 10 µM (inactive).

Turning to `C[C@@H]1CN([C@H](C)CO)C(=O)CCCn2nncc2CO[C@H]1CN(C)C(=O)Oc1cccc2ccccc12`, the AC50 was > 10 µM (inactive). Consider `CC(C)NC(=O)N1[C@@H]2CNc3ccccc3[C@@H]2[C@@H]1CO`, for which the AC50 is > 10 µM (inactive). Regarding `COCC(=O)N(C)C[C@H]1[C@H](c2ccccc2)[C@@H](CO)N1C(=O)Cc1ccncc1`, the AC50 was > 10 µM (inactive). The value for `O=C(CC(F)(F)F)N1C[C@H]2[C@@H](c3ccccc31)[C@@H](CO)N2C(=O)c1ccncc1` was > 10 µM (inactive); that for `COc1ccc(C(=O)N2C[C@H]3[C@@H](c4ccccc42)[C@H](CO)N3Cc2ccccc2Cl)cc1` was > 10 µM (inactive). As to `C[C@@H]1CN([C@@H](C)CO)C(=O)CCCn2cc(nn2)CO[C@@H]1CN(C)S(=O)(=O)c1cn(C)cn1`, the AC50 is > 10 µM (inactive). With `CNC[C@H]1OCc2cnnn2CCCC(=O)N([C@H](C)CO)C[C@@H]1C` the figure was > 10 µM (inactive).

Regarding `COc1ccc(NC(=O)N(C)C[C@@H]2OCc3cnnn3CCCC(=O)N([C@@H](C)CO)C[C@H]2C)c(OC)c1`, the AC50 was > 10 µM (inactive). The value for `COc1cccc(C(=O)N2C[C@@H]3[C@H](c4ccccc42)[C@H](CO)N3C(=O)c2cccc(F)c2)c1` was > 10 µM (inactive). Take `COc1ccccc1CN1[C@H](CO)[C@@H]2c3ccccc3N(C(=O)c3cccnc3)C[C@@H]21`: the AC50 was > 10 µM (inactive). `CCCNC(=O)N1C[C@@H]2[C@H](c3ccccc31)[C@H](CO)N2Cc1cccc(OC)c1`: the AC50 is > 10 µM (inactive). For `CCC(=O)N1C[C@@H]2[C@H](c3ccccc31)[C@H](CO)N2Cc1ccc(F)cc1`, the AC50 is > 10 µM (inactive).

Turning to `COCCNC[C@@H]1[C@@H](c2ccccc2)[C@@H](CO)N1c1nc(C)c(C)s1`, the AC50 was > 10 µM (inactive). `COc1ccccc1S(=O)(=O)N(C)C[C@H]1OCc2cn(nn2)CCCC(=O)N([C@H](C)CO)C[C@@H]1C`: the AC50 is > 10 µM (inactive). The value for `CCCNC(=O)N1C[C@@H]2[C@H](c3ccccc31)[C@@H](CO)N2Cc1cccc(OC)c1` was > 10 µM (inactive); that for `Cc1noc(C)c1NC(=O)N(C)C[C@@H]1OCc2cnnn2CCCC(=O)N([C@@H](C)CO)C[C@@H]1C` was > 10 µM (inactive). With `COc1ccc(NC(=O)N2C[C@H]3[C@@H](c4ccccc42)[C@H](CO)N3Cc2ccccn2)cc1` the figure was > 10 µM (inactive).

The record behind these values is PubChem BioAssay AID977614 (Broad Institute, 2014).
